This note sets out measurements from ChEMBL document CHEMBL1158640, “Synthesis, analgesic and anti-inflammatory activities of some novel pyrazolines derivatives” (Bioorg Med Chem Lett, 2010).

The source made the active and inactive calls. The calls are words filed in the database; no cut-off is given here.

In series [1] the test system is Rattus norvegicus. Briefly: Antiinflammatory activity in Wistar rat assessed as reduction of carrageenan-induced increase in paw volume at 30 mg/kg, po after 2 hrs. The class given is functional. In general terms: In the carrageenan paw model, swelling and tenderness develop within hours.
Series [2] deals with Rattus norvegicus. Description: Antiinflammatory activity in Wistar rat assessed as reduction of carrageenan-induced increase in paw volume at 30 mg/kg, po after 3 hrs. The class given is functional.
The subject of series [3] is Rattus norvegicus. Briefly: Antiinflammatory activity in Wistar rat assessed as reduction of carrageenan-induced increase in paw volume at 30 mg/kg, po after 24 hrs. The class given is functional.
In series [4] the test system is Rattus norvegicus. Description: Antiinflammatory activity in Wistar rat assessed as reduction of carrageenan-induced increase in paw volume at 30 mg/kg, po after 4 hrs. The class given is functional.
Series [5] deals with Mus musculus. Description: Toxicity in Swiss albino mouse up to 1000 mg/kg, po. As to conditions: in vivo. The class given is organism-based. Also on record: dose 1000 mg/kg, route oral.
The test system of series [6] is Rattus norvegicus. Briefly: Toxicity in Wistar rat up to 1000 mg/kg, po. The class given is organism-based. Details: dose 1000 mg/kg, route oral. As to conditions: in vivo.
Series [7] deals with Rattus norvegicus. Briefly: Antiinflammatory activity in Wistar rat assessed as reduction of carrageenan-induced increase in paw volume at 1000 mg/kg, po. The class given is functional, organism-based. Details: dose 1000 mg/kg.
The test system of series [8] is Mus musculus. Briefly: Analgesic activity against acetic acid-induced writhing in Swiss albino mouse at 30 mg/kg, po. It counts as functional, organism-based. Details: dose 30 mg/kg. In general terms: An intraperitoneal irritant provokes the stretching counted in writhing tests.

`O=C([O-])Cc1ccccc1Nc1c(Cl)cccc1Cl.[Na+]` [DICLOFENAC SODIUM]: the Activity in series [1] stood at 0.18 mL; in series [2] it was 0.18 mL; in series [3] it was 0.03 mL; in series [4] it was 0.18 mL.

For `Oc1ccccc1C1=NN(C(=S)Nc2ccccc2)C(c2ccc(N3CCOCC3)cc2)C1` (stereo unspecified), the Activity in series [1] is 0.82 mL; in series [2], 0.62 mL; in series [3] it was 0.94 mL; in series [4], 0.84 mL; in series [5], “Non-toxic”; in series [6] it was “Non-toxic”. For the same compound, the outcome in series [7] was Active.

As to `Oc1ccc(Br)cc1C1=NNC(c2ccc(N3CCOCC3)cc2)C1` (stereo unspecified), the Activity was 0.86 mL in series [1]; 0.52 mL in series [2]; 0.98 mL in series [3]; 0.64 mL in series [4]; “Non-toxic” in series [5]; “Non-toxic” in series [6]. For the same compound, the result in series [8] and in series [7] was Active.

Consider `Cc1ccc(O)c(C2=NNC(c3ccc(N4CCOCC4)cc3)C2)c1` (stereo unspecified), for which the Activity in series [1] is 0.87 mL; in series [2], 0.85 mL; in series [3] it was 0.79 mL; in series [4], 0.96 mL; in series [5] it was “Non-toxic”; in series [6] it was “Non-toxic”. In addition, the result in series [8] and in series [7] was Active.

For `Cc1ccc(O)c(C2=NN(C(=S)Nc3ccccc3)C(c3ccc(N4CCOCC4)cc3)C2)c1` (stereo unspecified), the Activity in series [1] is 1.52 mL; in series [2], 1.6 mL; in series [3], 1.92 mL; in series [4] it was 1.43 mL; in series [5] it was “Non-toxic”; in series [6], “Non-toxic”. Moreover, in series [7], the result was Active.

For the compound `Oc1c(Cl)cc(Cl)cc1C1=NN(C(=S)Nc2ccccc2)C(c2ccc(N3CCOCC3)cc2)C1` (stereo unspecified), the Activity was 1.49 mL in series [1]; 1.47 mL in series [2]; 1.92 mL in series [3]; 1.52 mL in series [4]; “Non-toxic” in series [5]; “Non-toxic” in series [6]. Further, the result in series [7] was Active.

For the compound `Oc1ccc(Cl)cc1C1=NNC(c2ccc(N3CCOCC3)cc2)C1` (stereo unspecified), the Activity in series [1] is 1.52 mL; in series [2], 1.6 mL; in series [3], 1.92 mL; in series [4], 1.61 mL; in series [5], “Non-toxic”; in series [6], “Non-toxic”. Besides, the result in series [7] was Active.

As for `Cc1cc(O)c(C2=NNC(c3ccc(N4CCOCC4)cc3)C2)cc1Cl` (stereo unspecified), the Activity was 1.56 mL in series [1]; 1.62 mL in series [2]; 1.93 mL in series [3]; 1.63 mL in series [4]; “Non-toxic” in series [5]; “Non-toxic” in series [6]. For the same compound, the result in series [7] was Active.

Regarding `Cc1cc(O)c(C2=NN(C(=S)Nc3ccccc3)C(c3ccc(N4CCOCC4)cc3)C2)cc1Cl` (stereo unspecified), the Activity was 1.42 mL in series [1]; 1.53 mL in series [2]; 1.92 mL in series [3]; 1.57 mL in series [4]; “Non-toxic” in series [5]; “Non-toxic” in series [6]. In addition, the result in series [7] was Active.

Consider `Cc1cc(C)c(O)c(C2=NNC(c3ccc(N4CCOCC4)cc3)C2)c1` (stereo unspecified), for which the Activity in series [1] is 1.38 mL; in series [2] it was 1.57 mL; in series [3], 1.92 mL; in series [4], 1.53 mL; in series [5] it was “Non-toxic”; in series [6], “Non-toxic”. Besides, the result in series [7] was Active.

As to `Oc1ccccc1C1=NNC(c2ccc(N3CCOCC3)cc2)C1` (stereo unspecified), the Activity is 0.73 mL in series [1]; 0.59 mL in series [2]; 0.68 mL in series [3]; 0.69 mL in series [4]; “Non-toxic” in series [5]; “Non-toxic” in series [6]. Besides, in series [7], the result was Active.

`Oc1c(Cl)cc(Cl)cc1C1=NNC(c2ccc(N3CCOCC3)cc2)C1` (stereo unspecified): the Activity in series [1] is 1.41 mL; in series [2], 1.46 mL; in series [3], 1.72 mL; in series [4], 1.75 mL; in series [5] it was “Non-toxic”; in series [6], “Non-toxic”. In series [7], the outcome was Active.

As to `Cc1cc(C)c(O)c(C2=NN(C(=S)Nc3ccccc3)C(c3ccc(N4CCOCC4)cc3)C2)c1` (stereo unspecified), the Activity in series [1] was 1.41 mL; in series [2], 1.81 mL; in series [3], 1.73 mL; in series [4], 1.63 mL; in series [5], “Non-toxic”; in series [6] it was “Non-toxic”. In addition, in series [7], the outcome was Active.

`Oc1ccc(Br)cc1C1=NN(C(=S)Nc2ccccc2)C(c2ccc(N3CCOCC3)cc2)C1` (stereo unspecified): the Activity was 0.87 mL in series [1]; 0.69 mL in series [2]; 0.92 mL in series [3]; 0.91 mL in series [4]; “Non-toxic” in series [5]; “Non-toxic” in series [6]. The outcome in series [8] and in series [7] was Active.

With `Oc1ccc(Cl)cc1C1=NN(C(=S)Nc2ccccc2)C(c2ccc(N3CCOCC3)cc2)C1` (stereo unspecified), the Activity is 0.64 mL in series [1]; 0.72 mL in series [2]; 0.86 mL in series [3]; 0.72 mL in series [4]; “Non-toxic” in series [5]; “Non-toxic” in series [6]. The result in series [8] and in series [7] was Active.
